Read-outs that look alike come from different tables or passages of the source.
Tests used:
Type in all cases: cell-based
ΔF508-CFTR [1] = target: T1, ΔF508-CFTR (Homo sapiens, UniProt P13569, DEL508-508); assay: CFTR cell surface levels using HRP-tagged ΔF508-CFTR expressing CFBE cells, in the presence of a co-corrector
T1 construct: host or cells: CFBE41o-, doxycycline-inducible
Procedure, shortened: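 Chemiluminescent read-out of surface HRP (15 min, dark) after PBS washes. Activity is normalized as 100×(sample−DMSO)/(3 μM co-corrector alone−DMSO).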

ΔF508-CFTR [2] = target: T1, ΔF508-CFTR; assay: CFTR cell surface levels using HRP-tagged ΔF508-CFTR expressing CFBE cells, intrinsic corrector capacity; parameters: % Activation: concentration or dose not given beside the values
Procedure, shortened: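 Surface ΔF508-CFTR was measured as HRP chemiluminescence from an extracellular-loop-4 tag, expressed as percent activity between DMSO and a […] corrector control.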

CFTR ΔF508 = target: T2, CFTR ΔF508 (Homo sapiens, UniProt P13569, DEL508-508); assay: Chronic TECC assay, primary bronchial epithelial cells of CF patients homozygous for CFTR ΔF508 (corrector, co-corrector and potentiator); conditions: for % Activity at 1 μM (AUC**): test compound at 1 μM
T2 construct: bronchial epithelial cells isolated from CF patients homozygous for the CFTR ΔF508 mutation; McGill University; Asterand; University of North Carolina hAEC-CF; host or cells: primary human bronchial epithelial cells from CF patients homozygous for ΔF508, differentiated at air-liquid interface
Procedure, shortened: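 Primary bronchial epithelial cells from ΔF508-homozygous CF patients on collagen IV-coated Transwells were chronically treated with test compound plus corrector and potentiator, which were re-added before recording. Ieq was derived from PD and Rt in NaCl-Ringer, pH 7.4, at 37° C, with apical amiloride and bilateral forskolin, recorded every 2 min over 20 min. Ieq increase was normalized to controls, and EC50 was taken from per-well concentrations.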

[3] = HRP-tagged ΔF508-CFTR CFBE cells, in the presence of 3 μM co-corrector
[4] = HRP-tagged ΔF508-CFTR CFBE cells, in the presence of 3 μM co-corrector, read-out: EC50
[5] = HRP-tagged ΔF508-CFTR expressing CFBE41o- cells, compound alone (intrinsic corrector capacity), 20 hours at 33° C.
[6] = HRP-tagged ΔF508-CFTR expressing CFBE41o- cells, compound alone (intrinsic corrector capacity), 20 hours at 33° C., read-out: EC50
[7] = chronic TECC, AUC = full area under the curve upon forskolin stimulation, read-out: EC50 (nM) (AUC**)
[8] = chronic TECC, AUC = full area under the curve upon forskolin stimulation

T2 sequence (P13569 with tags, fused parts or gaps DEL508-508): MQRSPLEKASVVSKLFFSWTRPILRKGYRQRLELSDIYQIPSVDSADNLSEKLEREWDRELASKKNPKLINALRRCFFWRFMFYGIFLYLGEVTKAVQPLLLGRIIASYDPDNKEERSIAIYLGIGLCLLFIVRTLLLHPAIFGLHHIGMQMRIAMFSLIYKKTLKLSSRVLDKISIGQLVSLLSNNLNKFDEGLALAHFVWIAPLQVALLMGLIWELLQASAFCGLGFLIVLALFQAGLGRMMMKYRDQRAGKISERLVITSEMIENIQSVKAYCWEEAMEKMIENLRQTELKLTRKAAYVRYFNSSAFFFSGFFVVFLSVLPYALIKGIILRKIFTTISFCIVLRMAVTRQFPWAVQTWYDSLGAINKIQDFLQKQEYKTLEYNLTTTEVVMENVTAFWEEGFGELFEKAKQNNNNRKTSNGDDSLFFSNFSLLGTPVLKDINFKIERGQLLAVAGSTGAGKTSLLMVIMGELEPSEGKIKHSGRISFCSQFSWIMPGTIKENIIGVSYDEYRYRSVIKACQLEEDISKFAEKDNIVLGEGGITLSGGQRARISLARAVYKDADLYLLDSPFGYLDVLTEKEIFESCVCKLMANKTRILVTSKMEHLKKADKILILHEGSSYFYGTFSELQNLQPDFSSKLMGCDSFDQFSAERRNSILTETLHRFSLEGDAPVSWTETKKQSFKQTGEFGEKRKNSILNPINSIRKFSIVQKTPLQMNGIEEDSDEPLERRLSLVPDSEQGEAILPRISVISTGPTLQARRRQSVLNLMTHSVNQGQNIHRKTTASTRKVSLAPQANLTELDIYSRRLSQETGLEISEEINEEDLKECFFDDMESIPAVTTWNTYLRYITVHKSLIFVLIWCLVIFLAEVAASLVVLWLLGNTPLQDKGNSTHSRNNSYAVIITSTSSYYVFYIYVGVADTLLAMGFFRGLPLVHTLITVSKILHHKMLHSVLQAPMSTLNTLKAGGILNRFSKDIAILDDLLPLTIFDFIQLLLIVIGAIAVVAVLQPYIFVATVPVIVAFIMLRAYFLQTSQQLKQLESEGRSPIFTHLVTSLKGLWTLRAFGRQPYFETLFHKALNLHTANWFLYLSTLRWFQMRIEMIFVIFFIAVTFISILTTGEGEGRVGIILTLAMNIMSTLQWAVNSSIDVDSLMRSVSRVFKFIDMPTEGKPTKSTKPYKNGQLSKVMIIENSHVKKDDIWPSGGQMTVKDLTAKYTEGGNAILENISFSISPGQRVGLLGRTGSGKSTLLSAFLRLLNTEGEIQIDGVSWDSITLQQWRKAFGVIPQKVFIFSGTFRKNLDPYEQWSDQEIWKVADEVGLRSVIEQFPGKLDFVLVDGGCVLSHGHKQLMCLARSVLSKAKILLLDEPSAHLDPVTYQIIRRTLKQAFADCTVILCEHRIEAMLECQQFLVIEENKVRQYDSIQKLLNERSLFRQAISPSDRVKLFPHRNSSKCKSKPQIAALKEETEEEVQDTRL
T1 sequence (P13569 with tags, fused parts or gaps DEL508-508): as above

Compound	% Activation (ΔF508-CFTR [1]; [3]) [%]	EC50 (ΔF508-CFTR [1]; [4]) [nM]	% Activation (ΔF508-CFTR [2]; [5]) [%]	EC50 (ΔF508-CFTR [2]; [6]) [nM]	EC50 (CFTR ΔF508; [7]) [nM]	% Activity at 1 μM (AUC**) (CFTR ΔF508; [8]) [%]	EC50 (ΔF508-CFTR [1]) [nM]	EC50 (ΔF508-CFTR [2]) [nM]	EC50 (CFTR ΔF508) [nM]
COCC1CCN(c2cc(C(=O)NS(C)(=O)=O)nc3c2c(C(C)C)nn3-c2ccnc(N3CCOCC3)n2)CC1 [Compound 279, N-(methanesulfonyl)-4-[4-(methoxymethyl)piperidin-1-yl]-1-[2-(morpholin-4-yl)pyrimidin-4-yl]-3-(propan-2-yl)-1H-pyrazolo[3,4-b]pyridine-6-carboxamide]	530.6	227	308.4	534	109	–	–	–	–
COCC1CCN(c2cc(C(=O)NS(=O)(=O)CCCN3CCCC3)nc3c2c(C(C)C)nn3-c2ccc(F)cc2)CC1 [Compound 291, 1-(4-fluorophenyl)-4-[4-(methoxymethyl)piperidin-1-yl]-3-(propan-2-yl)-N-[3-(pyrrolidin-1-yl)propane-1-sulfonyl]-1H-pyrazolo[3,4-b]pyridine-6-carboxamide]	420.07	591	219.5	3330	–	255.92	–	–	–
COC(C)(C)C1CCN(c2cc(C(=O)NS(C)(=O)=O)nc3c2c(C2CCC2)nn3-c2ccccc2)CC1 [Compound 294, 3-cyclobutyl-N-(methanesulfonyl)-4-[4-(2-methoxypropan-2-yl)piperidin-1-yl]-1-phenyl-1H-pyrazolo[3,4-b]pyridine-6-carboxamide]	548.45	22.1	319.6	62.2	21	–	–	–	–
COC(=O)N1CCC(COc2cc(C(=O)NS(C)(=O)=O)nc3c2c(C2CCC2)nn3-c2ccccc2)CC1 [Compound 297, methyl 4-[({3-cyclobutyl-6-[(methanesulfonyl)carbamoyl]-1-phenyl-1H-pyrazolo[3,4-b]pyridin-4-yl}oxy)methyl]piperidine-1-carboxylate]	423.43	77.2	193.9	99.2	≤ 30	470.97	–	–	–
CC(C)c1nn(-c2ccc(F)cc2)c2nc(C(=O)NS(C)(=O)=O)cc(N3CCC(C(C)(C)O)CC3)c12 [Compound 304, 1-(4-fluorophenyl)-4-[4-(2-hydroxypropan-2-yl)piperidin-1-yl]-N-(methanesulfonyl)-3-(propan-2-yl)-1H-pyrazolo[3,4-b]pyridine-6-carboxamide]	507	56.1	308.2	203	–	194.54	–	–	–
COCC1CCN(c2cc(C(=O)NS(C)(=O)=O)nc3c2c(C2CCC2)nn3-c2ccc(F)cc2)CC1 [Compound 316, 3-cyclobutyl-1-(4-fluorophenyl)-N-(methanesulfonyl)-4-[4-(methoxymethyl)piperidin-1-yl]-1H-pyrazolo[3,4-b]pyridine-6-carboxamide]	555.55	24.4	380.5	183	45	452.88	–	–	–
CC(C)(O)C1CCN(c2cc(C(=O)NS(C)(=O)=O)nc3c2c(C2CCC2)nn3-c2ccccc2)CC1 [Compound 317, 3-cyclobutyl-4-[4-(2-hydroxypropan-2-yl)piperidin-1-yl]-N-(methanesulfonyl)-1-phenyl-1H-pyrazolo[3,4-b]pyridine-6-carboxamide]	450.35	48.8	269.6	93.5	24	311.08	–	–	–
CS(=O)(=O)NC(=O)c1cc(OCC2CCOCC2)c2c(C3CCC3)nn(-c3ccc(F)cc3)c2n1 [Compound 318, 3-cyclobutyl-1-(4-fluorophenyl)-N-(methanesulfonyl)-4-[(oxan-4-yl)methoxy]-1H-pyrazolo[3,4-b]pyridine-6-carboxamide]	359.5	184	183.45	411	–	439.94	–	–	–
CC(C)c1nn(-c2ccc(F)cc2)c2nc(C(=O)NS(C)(=O)=O)cc(N3CCC(C4CCN(C)CC4)CC3)c12 [Compound 320, 1-(4-fluorophenyl)-N-(methanesulfonyl)-4-(1'-methyl[4,4'-bipiperidin]-1-yl)-3-(propan-2-yl)-1H-pyrazolo[3,4-b]pyridine-6-carboxamide]	590.6	82.7	376.35	309	–	215.3	–	–	–
COC(=O)N1CCC(COc2cc(C(=O)NS(C)(=O)=O)nc3c2c(C(C)C)nn3-c2ccc(F)cc2)CC1 [Compound 322, methyl 4-({[1-(4-fluorophenyl)-6-[(methanesulfonyl)carbamoyl]-3-(propan-2-yl)-1H-pyrazolo[3,4-b]pyridin-4-yl]oxy}methyl)piperidine-1-carboxylate]	342.75	61.4	158.25	128	–	440.86	–	–	–
CN1CCCCC1CCOc1cc(C(=O)NS(C)(=O)=O)nc2c1c(C1CCC1)nn2-c1ccccc1 (stereo not drawn) [Compound 323, 3-cyclobutyl-N-(methanesulfonyl)-4-[2-(1-methylpiperidin-2-yl)ethoxy]-1-phenyl-1H-pyrazolo[3,4-b]pyridine-6-carboxamide]	292.85	372	144.6	1370	–	217.91	–	–	–
CC(C)N(CCOc1cc(C(=O)NS(C)(=O)=O)nc2c1c(C1CCC1)nn2-c1ccccc1)C1COC1 [Compound 325, 3-cyclobutyl-N-(methanesulfonyl)-4-{2-[(oxetan-3-yl)(propan-2-yl)amino]ethoxy}-1-phenyl-1H-pyrazolo[3,4-b]pyridine-6-carboxamide]	309.8	153	151.4	335	–	317.57	–	–	–
CS(=O)(=O)NC(=O)c1cc(N2CCC(CCN3CCOCC3)CC2)c2c(C3CCC3)nn(-c3ccccc3)c2n1 [Compound 331, 3-cyclobutyl-N-(methanesulfonyl)-4-{4-[2-(morpholin-4-yl)ethyl]piperidin-1-yl}-1-phenyl-1H-pyrazolo[3,4-b]pyridine-6-carboxamide]	546.05	–	347.15	–	–	–	38.2	136	10
CCOC(=O)N1CCN(c2cc(C(=O)NS(C)(=O)=O)nc3c2c(C(C)C)nn3-c2ccc(F)cc2)CC1 [Compound 337, ethyl 4-[1-(4-fluorophenyl)-6-[(methanesulfonyl)carbamoyl]-3-(propan-2-yl)-1H-pyrazolo[3,4-b]pyridin-4-yl]piperazine-1-carboxylate]	532.3	30.5	404.9	134	–	299.50	–	–	–
COCCN1CCN(c2cc(C(=O)NS(C)(=O)=O)nc3c2c(C(C)C)nn3-c2ccc(F)cc2)CC1 [Compound 340, 1-(4-fluorophenyl)-N-(methanesulfonyl)-4-[4-(2-methoxyethyl)piperazin-1-yl]-3-(propan-2-yl)-1H-pyrazolo[3,4-b]pyridine-6-carboxamide]	319.2	786	138.95	1390	–	216.53	–	–	–

From patent US10259810B2, “N-sulfonylated pyrazolo[3,4-b]pyridin-6-carboxamides and method of use” (AbbVie S.à.r.l., priority 2015, dated 2019)
